Consider 29 compounds from patent US20240317721A1, “PYRAZOLYL DERIVATIVES AS INHIBITORS OF THE KRAS MUTANT PROTEIN” (NOVARTIS AG, priority 2021, published 2024).

Bounds are passed on as bounds.

For the assay, the target named is KRasG12C (M1-K169, biotinylated on the N-terminus) (Homo sapiens (Human), UniProt P01116, G12C). Nature of the assay: Covalent competition assay: scintillation proximity assay (SPA) quantifying covalent modification of KRASG12C. The assay is classed as binding. Conditions: competition with radiolabeled covalent probe (Compound B/Compound A), 2 hours incubation, 10 nM KRasG12C. Summed up: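 Test compounds compete with a radiolabeled covalent probe for modification of N-terminally biotinylated KRasG12C(M1-K169):GDP, final 10 nM protein, 25 nM radio-ligand, 475 nM unlabelled ligand, 2 h with agitation in 20 mM Tris-HCl pH 7.5, 150 mM NaCl, 0.1 mM MgCl2, 0.01% Tween-20.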
(In general: SPA uses beads or plates that emit light when radiolabelled molecules are held near them.)
In general, IC50 refers to the concentration that inhibits the measured activity by half. As for `C=CC(=O)N1CC2(CC(n3nc(N4CCN(C5COC5)C5COCC54)c(-c4c(Cl)c(C)cc5[nH]ncc45)c3C)C2)C1` (stereo not drawn) [Example 137a, 1-(6-(4-(5-chloro-6-methyl-1H-indazol-4-yl)-5-methyl-3-((4aS*,7aS*)-4-(oxetan-3-yl)hexahydrofuro[3,4-b]pyrazin-1(2H)-yl)-1H-pyrazol-1-yl)-2-azaspiro[3.3]heptan-2-yl)prop-2-en-1-one], the IC50 is over 5000 nM.

For the compound `C=CC(=O)N1CC2(CC(n3nc(N4CCN(C5COCCOC5)C[C@]4(C)CC)c(-c4c(Cl)c(C)cc5[nH]ncc45)c3C)C2)C1` (single isomer, unassigned) [Example 159a], the IC50 came to 715 nM.

As for `C=CC(=O)N1CC2(CC(n3nc(N4CC[C@@H](CN5CCN6C[C@@H](O)C[C@@H]6C5)CC4(C)C)c(-c4c(Cl)c(Cl)cc5[nH]ncc45)c3C)C2)C1` (single isomer, unassigned) [Example 287a], the IC50 is 307 nM.

In the case of `C=CC(=O)N1CC2(CC(n3nc(N4CC[C@@H](CN5CCC56COC6)CC4(C)C)c(-c4c(Cl)c(Cl)cc5[nH]ncc45)c3C)C2)C1` (single isomer, unassigned) [Example 307b], the IC50 is 8 nM.

With `C=CC(=O)N1CC2(CC(n3nc(N4CC[C@@H](CN5CCC6COCC65)CC4(C)C)c(-c4c(C)c(Cl)cc5[nH]ncc45)c3C)C2)C1` (single isomer, unassigned) [Example 305a, 1-(6-(4-(6-chloro-5-methyl-1H-indazol-4-yl)-3-((R)-4-(((3aR*,6aR*)-hexahydro-1H-furo[3,4-b]pyrrol-1-yl)methyl)-2,2-dimethylpiperidin-1-yl)-5-methyl-1H-pyrazol-1-yl)-2-azaspiro[3.3]heptan-2-yl)prop-2-en-1-one], the IC50 was 2500 nM.

As for `C=CC(=O)N1CC2(CC(n3nc(N4CCN(C(=O)COC)CC45CCC5)c(-c4c(Cl)c(C)cc5[nH]ncc45)c3C)C2)C1` (single isomer, unassigned) [Example 123a, 1-(6-(4-(5-chloro-6-methyl-1H-indazol-4-yl)-3-(8-(2-methoxyacetyl)-5,8-diazaspiro[3.5]nonan-5-yl)-5-methyl-1H-pyrazol-1-yl)-2-azaspiro[3.3]heptan-2-yl)prop-2-en-1-one], the IC50 was over 5000 nM.

Consider `C=CC(=O)N1CC2(CC(n3nc(N4CCCC45CCOCC5)c(-c4c(Cl)c(C)cc5[nH]ncc45)c3C)C2)C1` [Example 60, 1-(6-(4-(5-chloro-6-methyl-1H-indazol-4-yl)-5-methyl-3-(8-oxa-1-azaspiro[4.5]decan-1-yl)-1H-pyrazol-1-yl)-2-azaspiro[3.3]heptan-2-yl)prop-2-en-1-one], for which the IC50 turned out to be 4900 nM.

Take `C=CC(=O)N1CC2(CC(n3nc(N4CCN(c5ccnnc5)C[C@]4(C)CC)c(-c4c(Cl)c(C)cc5[nH]ncc45)c3C)C2)C1` (single isomer, unassigned) [Example 192b]: the IC50 came to 8 nM.

For `C=CC(=O)N1CC2(CC(n3nc(N4CCC(N5C[C@H](OC)[C@H](OC)C5)CC4(C)C)c(-c4c(Cl)c(C)cc5[nH]ncc45)c3C)C2)C1` (single isomer, unassigned) [Example 102b], the IC50 amounted to 23 nM.

As for `C=CC(=O)N1CC2(CC(n3nc(N4CC[C@@H](CN5CCP(C)(=O)CC5)CC4(C)C)c(-c4c(Cl)c(Cl)cc5[nH]ncc45)c3C)C2)C1` (single isomer, unassigned) [Example 269b], the IC50 was determined as 6 nM.

On to `C=CC(=O)N1CC2(CC(n3nc(N4CCN(CCOC)CC45CCC5)c(-c4c(Cl)c(C)cc5[nH]ncc45)c3C)C2)C1` (single isomer, unassigned) [Example 71b, 1-(6-(4-(5-chloro-6-methyl-1H-indazol-4-yl)-3-(8-(2-methoxyethyl)-5,8-diazaspiro[3.5]nonan-5-yl)-5-methyl-1H-pyrazol-1-yl)-2-azaspiro[3.3]heptan-2-yl)prop-2-en-1-one], for which the IC50 turned out to be 25 nM.

For `C=CC(=O)N1CC2(CC(n3nc(N4CC[C@@H](CN5CC6CC(C5)N6C(C)=O)CC4(C)C)c(-c4c(Cl)c(Cl)cc5[nH]ncc45)c3C)C2)C1` (single isomer, unassigned) [Example 301b], the half-inhibitory concentration (IC50) is under 5 nM.

With `CC[C@@]1(C)CN(C[C@@H]2COCCO2)CCN1c1nn(C2CC3(C2)CN(C(=O)/C=C/COC)C3)c(C)c1-c1c(Cl)c(C)cc2[nH]ncc12` (single isomer, unassigned) [Example 120b], the IC50 came to 140 nM.

As to `C=CC(=O)N1CC2(CC(n3nc(N4CC[C@@H](CN5CCC56COC6)CC4(C)C)c(-c4c(Cl)c(Cl)cc5[nH]ncc45)c3C)C2)C1` (single isomer, unassigned) [Example 307a], the IC50 is over 5000 nM.

Turning to `C=CC(=O)N1CC2(CC(n3nc(N4CCC(CN5CCN(C)CC5=O)CC4(C)C)c(-c4c(Cl)c(Cl)cc5[nH]ncc45)c3C)C2)C1` (single isomer, unassigned) [Example 240b, 1-((1-(1-(2-acryloyl-2-azaspiro[3.3]heptan-6-yl)-4-(5,6-dichloro-1H-indazol-4-yl)-5-methyl-1H-pyrazol-3-yl)-2,2-dimethylpiperidin-4-yl)methyl)-4-methylpiperazin-2-one], the IC50 amounted to 8 nM.

With `C=CC(=O)N1CC2(CC(n3nc(N4CCN(CC5COCCOC5)C[C@]4(C)CC)c(-c4c(Cl)c(C)cc5[nH]ncc45)c3C)C2)C1` (single isomer, unassigned) [Example 186a], the IC50 turned out to be 1500 nM.

As for `C/C=C/C(=O)N1CC2(CC(n3nc(N4CCN(C5COC5)CC45CCC5)c(-c4c(Cl)c(C)cc5[nH]ncc45)c3C)C2)C1` (single isomer, unassigned) [Example 138b, (E)-1-(6-(4-(5-chloro-6-methyl-1H-indazol-4-yl)-5-methyl-3-(8-(oxetan-3-yl)-5,8-diazaspiro[3.5]nonan-5-yl)-1H-pyrazol-1-yl)-2-azaspiro[3.3]heptan-2-yl)but-2-en-1-one], the IC50 was found to be 2780 nM.

For `C=CC(=O)N1CC2(CC(n3nc(N4CCC5(CC4)CN(C(C)=O)CCO5)c(-c4c(Cl)c(C)cc5[nH]ncc45)c3C)C2)C1` (single isomer, unassigned) [Example 26b, 1-(6-(3-(4-acetyl-1-oxa-4,9-diazaspiro [5.5]undecan-9-yl)-4-(5-chloro-6-methyl-1H-indazol-4-yl)-5-methyl-1H-pyrazol-1-yl)-2-azaspiro[3.3]heptan-2-yl)prop-2-en-1-one], the IC50 was 110 nM.

Turning to `C=CC(=O)N1CC2(CC(n3nc(N4CC[C@@H](CN5CCn6cnnc6C5)CC4(C)C)c(-c4c(Cl)c(Cl)cc5[nH]ncc45)c3C)C2)C1` (single isomer, unassigned) [Example 250b], the IC50 was 8 nM.

For the compound `C=CC(=O)N1CC2(CC(n3nc(N4CCN(Cc5ccccc5)CC45CCC5)c(-c4c(Cl)c(C)cc5[nH]ncc45)c3C)C2)C1` (single isomer, unassigned) [Example 100a, 1-(6-(3-(8-benzyl-5,8-diazaspiro[3.5]nonan-5-yl)-4-(5-chloro-6-methyl-1H-indazol-4-yl)-5-methyl-1H-pyrazol-1-yl)-2-azaspiro[3.3]heptan-2-yl)prop-2-en-1-one], the half-maximal inhibitory concentration (IC50) was over 5000 nM.

As to `C=CC(=O)N1CC2(CC(n3nc(N4CC[C@@H](CN5CC6(C5)CN(C)C(=O)O6)CC4(C)C)c(-c4c(Cl)c(Cl)cc5[nH]ncc45)c3C)C2)C1` (single isomer, unassigned) [Example 284b], the IC50 was determined as 8 nM.

On to `[2H]C([2H])([2H])c1c(-c2c(Cl)c(Cl)cc3[nH]ncc23)c(N2CC[C@@H](CN3CCOCC3)CC2(C)C)nn1C1CC2(C1)CN(C(=O)C=C)C2` (single isomer, unassigned) [Example 224b], for which the IC50 amounted to 12 nM.

In the case of `C=CC(=O)N1CC2(CC(n3nc(N4CC[C@@H](CN(C5COC5)C5COC5)CC4(C)C)c(-c4c(Cl)c(Cl)cc5[nH]ncc45)c3C)C2)C1` (single isomer, unassigned) [Example 282b], the IC50 stood at 7 nM.

As for `C=CC(=O)N1CC2(CC(n3nc(N4CC[C@@H](CN5CCO[C@@H](CO)C5)CC4(C)C)c(-c4c(Cl)c(Cl)cc5[nH]ncc45)c3C)C2)C1` (single isomer, unassigned) [Example 247b], the IC50 came to 9 nM.

Regarding `C=CC(=O)N1CC2(CC(n3nc(N4CCC(N5C[C@H](OC)[C@H](OC)C5)CC4(C)C)c(-c4c(Cl)c(C)cc5[nH]ncc45)c3C)C2)C1` (single isomer, unassigned) [Example 102a], the IC50 is over 5000 nM.

For `C=CC(=O)N1CC2(CC(n3nc(N4CCc5ncncc5C4)c(-c4c(Cl)c(C)cc5[nH]ncc45)c3C)C2)C1` (single isomer, unassigned) [Example 15a, 1-(6-(4-(5-chloro-6-methyl-1H-indazol-4-yl)-3-(7,8-dihydropyrido[4,3-d]pyrimidin-6(5H)-yl)-5-methyl-1H-pyrazol-1-yl)-2-azaspiro[3.3]heptan-2-yl)prop-2-en-1-one], the IC50 is 18000 nM.

On to `C=CC(=O)N1CC2(CC(n3nc(N4CCN(CCO)CC4(C)C)c(-c4c(Cl)c(C)cc5[nH]ncc45)c3C)C2)C1` (single isomer, unassigned) [Example 163a, 1-(6-(4-(5-chloro-6-methyl-1H-indazol-4-yl)-3-(4-(2-hydroxyethyl)-2,2-dimethylpiperazin-1-yl)-5-methyl-1H-pyrazol-1-yl)-2-azaspiro[3.3]heptan-2-yl)prop-2-en-1-one], for which the IC50 is over 5000 nM.

Turning to `C=CC(=O)N1CC2(CC(n3nc(N4CC[C@@H](CN5CCOCC5)CC4(C)C)c(-c4c(Cl)c(Cl)cc5[nH]nc(N)c45)c3C)C2)C1` (single isomer, unassigned) [Example 241a], the IC50 was determined as 8 nM.

Consider `C=CC(=O)N1CC2(CC(n3nc(N4CCC(N(C)C5COC5)CC45CCC5)c(-c4c(Cl)c(C)cc5[nH]nc(N)c45)c3C)C2)C1` (single isomer, unassigned) [Example 116a, 1-(6-(4-(3-amino-5-chloro-6-methyl-1H-indazol-4-yl)-5-methyl-3-(8-(methyl(oxetan-3-yl)amino)-5-azaspiro[3.5]nonan-5-yl)-1H-pyrazol-1-yl)-2-azaspiro[3.3]heptan-2-yl)prop-2-en-1-one], for which the IC50 amounted to 205 nM.
